Where a name gives a salt, the structure may show the parent alone.
The compounds below were run on MTT (mouse pheochromocytoma) (assay: IC50 of cell viability (ATP content)). Conditions: (24 or 48 h).
In short: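 MTT mouse pheochromocytoma cells in white 1536-well plates were treated for 24 or 48 hrs with library compounds at 8 final concentrations from 0.5 nM to 46 µM. ATP content was measured with CellTiter-Glo luminescence, using positive-control wells as 100% and DMSO wells as 0%. IC50 came from a four-parameter logistic fit.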

Row | SMILES | IC50 of cell viability [µM]
1 | [Na+].CC1=C(C(=O)N[C@H]2[C@H]3SC(C)(C)[C@H]([N@]3C2=O)C([O-])=O)C(=NO1)C4=C(Cl)C=CC=C4 [Cloxacillin sodium salt] | > 46
2 | CN(C)CCc1c[nH]c2ccccc12 [N,N-Dimethyltryptamine] | > 46
3 | CN1C(=O)CN2CCc3ccccc3C2c2cc(Cl)ccc21 (configuration not stated) [Clazolam] | > 46
4 | CCC1\C(=N/N=C(C2=CC(=C(OC)C=C2)OC)\C3=C1C=C(OC)C(=C3)OC)C (configuration not stated) [TOFISOPAM] | > 46
5 | C1CCNCC1.Oc1ncnc2[nH]cc(CN3CCCCC3)c12 | > 46
6 | CC(C)(C)c1ccc2c(S(=O)(=O)[O-])c(C(C)(C)C)ccc2c1 [Dibunic acid] | > 46
7 | CCN(CC)C(=O)[C@H]\1CN(C)[C@@H]\2CC3=C[NH]C4=C3C(=CC=C4)C2=C1 [(+)-Lysergic] | > 46
8 | C#C[C@]1(O)CC[C@H]2[C@@H]3CCC4=CC(=O)CC[C@@H]4[C@H]3CC[C@@]21CC [Levonorgestrel] | > 46
9 | [Cl][In]([Cl])[Cl] [Indium trichloride] | > 46
10 | CC1=NC=C2C\N=C(\C3=CC=CC=C3F)C4=CC(=CC=C4[N]12)Cl [MIDAZOLAM HYDROCHLORIDE] | > 46
11 | OCC1O[C@H](Oc2ccc(O)cc2)C(O)C(O)C1O (some centres not stated) [ARBUTIN] | > 46
12 | Oc1cccc(-c2c3nc(c(-c4cccc(O)c4)c4ccc([nH]4)c(-c4cccc(O)c4)c4nc(c(-c5cccc(O)c5)c5ccc2[nH]5)CC4)C=C3)c1 [Temoporfin] | > 46
13 | COc1ccc(-c2cc(=S)ss2)cc1 [ANETHOLE TRITHIONE] | > 46
14 | O=C1CN(/N=C/c2ccc([N+](=O)[O-])o2)C(=O)N1 [Nitrofurantoin] | > 46
15 | Nc1ccc(Sc2ccc(N)cc2)cc1 [4,4'-Thiodianiline] | > 46
16 | CCCCCCC(=O)CCCCCC/C=C/C[C@@H](O)[C@H](O)[C@@](N)(CO)C(=O)O | > 46
17 | CNCc1ccccc1.Cl [N-METHYLBENZYLAMINE HYDROCHLORIDE] | > 46
18 | CC1OC1P(=O)([O-])[O-].[Ca+2] (configuration not stated) [FOSFOMYCIN] | > 46
19 | CN1CCN(C2=Nc3ccccc3Sc3ccc(Cl)cc32)CC1 [Clothiapine] | > 46
20 | CCCN(CCC)C(=O)Cc1c(-c2ccc(Cl)cc2)nc2ccc(Cl)cn12 [Alpidem] | > 46
21 | O=C1OC2(c3ccccc31)c1cc(I)c(O)c(I)c1Oc1c2cc(I)c(O)c1I [Erythrosin B] | > 46
22 | COCCOCCO [Diethylene glycol monomethyl ether] | > 46
23 | CC[C@@H](O)C(C[C@@H](C)N(C)C)(c1ccccc1)c1ccccc1 | > 46
24 | CC(Cc1ccc2c(c1)OCO2)NO (configuration not stated) [(?)-N-Hydroxy-3,4-methylenedioxyamphetamine] | > 46
25 | COc1cc(Nc2c(C#N)cnc3cc(OCCCN4CCN(C)CC4)c(OC)cc23)c(Cl)cc1Cl [Bosutinib Methanoate] | > 46
26 | CO[C@@H]1C[C@H](O[C@H]2[C@H](C)[C@H](O[C@@H]3O[C@@H](C)C[C@@H](N(C)C)[C@H]3OC(C)=O)[C@H](C)C[C@]3(CO3)C(=O)[C@H](C)[C@H](OC(C)=O)[C@H](C)[C@H](C)OC(=O)[C@@H]2C)O[C@H](C)[C@H]1OC(C)=O [Troleandomycin] | > 46
27 | NC(=O)c1cc([N+](=O)[O-])cc([N+](=O)[O-])c1 [NITROMIDE] | > 46

Results, then the compound that gave them:

Row | IC50 of cell viability [µM] | SMILES
28 | > 46 | COC(=O)C1=C(C#N)NC(C)=C(C(=O)OC(C)C)C1c1cccc([N+](=O)[O-])c1 (configuration not stated) [NILVADIPINE]
29 | > 46 | Oc1ncnc2[nH]ncc12 [Allopurinol]
30 | > 46 | CN(C)CCCN1c2ccccc2CCc2ccccc21 [IMIPRAMINE]
31 | > 46 | CC(=O)NC(CCC(N)=O)C(=O)O [Na-Acetyl-L-glutamine]
32 | > 46 | OC(COC1=CC=CC2=C1C(=O)\C=C(/O2)C(O)=O)COC3=CC=CC4=C3C(=O)\C=C(/O4)C(O)=O [Cromolyn sodium]
33 | > 46 | COc1cc(CNC(=O)CCCC/C=C/C(C)C)ccc1O [Capsaicin]
34 | > 46 | C[C@]12CCC(=O)C=C1CC[C@@H]1[C@@H]2[C@@H](O)C[C@@]2(C)[C@H]1CC[C@]2(O)C(=O)COP(=O)([O-])[O-] [HYDROCORTISONE SODIUM PHOSPHATE]
35 | > 46 | CCOC(=O)Oc1c(OC)cc(C(=O)O[C@@H]2C[C@H]3CN4CCc5c([nH]c6cc(OC)ccc56)[C@@H]4C[C@@H]3[C@@H](C(=O)OC)[C@H]2OC)cc1OC [Syrosingopine]
36 | > 46 | CN1N(C2=CC=CC=C2)C(=O)C(=C1/C)/N [Ampyrone]
37 | > 46 | CC[S+](=O)([O-])CCn1c([N+](=O)[O-])cnc1C [Tinidazole]
38 | > 46 | CC(C)[N+](C)(CCOC(=O)C1c2ccccc2Oc2ccccc21)C(C)C.[Br-] [PROPANTHELINE BROMIDE]
39 | > 46 | CN(C)[C@@H]\1[C@@H]2C[C@H]3\C(=C(\O)[C@@]2(O)C(=O)\C(=C1O)C(=O)NCN4CCCC4)C(=O)C5=C(C=CC=C5O)[C@@]3(C)O [Rolitetracycline]
40 | > 46 | COc1cc(/C=C/C(=O)N2CCN(CC(=O)N3CCCC3)CC2)cc(OC)c1OC [CINEPAZIDE MALEATE]
41 | > 46 | C/C(=C(/CCOP(=O)(O)O)SC(=O)c1ccccc1)N(C=O)Cc1cnc(C)nc1N [Benfotiamine]
42 | > 46 | NCCCCCC(=O)O [Aminocaproic acid]
43 | > 46 | CCOC(=O)CN[C@@H](C(=O)N1CC[C@H]1C(=O)NCc1ccc(/C(N)=N/O)cc1)C1CCCCC1 [Ximelagatran]
44 | > 46 | OC[C@@H]1CC[C@H](n2cnc3c(O)ncnc32)O1 [Didanosine]
45 | > 46 | CC(=O)N1CCN(c2ccc(OC[C@@H]3CO[C@@](Cn4ccnc4)(c4ccc(Cl)cc4Cl)O3)cc2)CC1 [Ketoconazole]
46 | > 46 | COc1cc(C(=O)OC(COCCC(C)C)CN2CCOCC2)cc(OC)c1OC (configuration not stated) [Amoproxan]
47 | > 46 | Cc1cccc(C)c1NC(=O)CN1CCN(CCCC(c2ccc(F)cc2)c2ccc(F)cc2)CC1 [Lidoflazine]

Row | IC50 of cell viability [µM] | SMILES
48 | > 46 | CC(N)CCCC(C)(C)O.Cl (configuration not stated) [HEPTAMINOL HYDROCHLORIDE]
49 | > 46 | CCO[C@H]1O[C@@H]([C@H](COCc2ccccc2)OCc2ccccc2)[C@@H](OCc2ccccc2)[C@@H]1O [Tribenoside]
50 | > 46 | O=C(Nc1ccccc1)OC[C@H](CN1CCCCC1)OC(=O)Nc1ccccc1 [Diperodon hydrochloride]
51 | > 46 | CC1(C)O[C@H]2C[C@@H]3[C@H]4CC\C5=C\C(=O)CC[C@@]5(C)[C@]4(F)[C@@H](O)C[C@]3(C)[C@]2(O1)C(=O)CCl [Halcinonide]
52 | > 46 | CCOC(=O)c1ccc(NC(=O)CN2CCCCC2)cc1 [Sulcaine]
53 | > 46 | Cc1c(C)c2c(c(C)c1O)CCC(C)(COc1ccc(CC3SC(=O)NC3=O)cc1)O2 (configuration not stated) [Troglitazone]
54 | > 46 | CCC(=O)O[C@H]1C(O[C@@H]2C(C)[C@H](O[C@H]3C[C@@](C)(OC)C(O)C(C)O3)C(C)C(=O)OC(CC)[C@@](C)(O)C(O)[C@H](C)C(=O)C(C)C[C@]2(C)O)OC(C)CC1N(C)C.CCCCCCCCCCCCO[S+](=O)([O-])O (some centres not stated) [ERYTHROMYCIN ESTOLATE]
55 | > 46 | CC(C)CCC[C@@H](C)[C@H]1CC[C@H]2[C@@H]3CC=C4C[C@@H](O)CC[C@]4(C)[C@H]3CC[C@]12C [CHOLESTEROL]
56 | > 46 | O=C(OCC(COC(=O)c1cccnc1)(COC(=O)c1cccnc1)COC(=O)c1cccnc1)c1cccnc1 [Niceritrol]
57 | > 46 | COc1cc(N)c(Cl)cc1C(=O)NC1CCN(Cc2ccccc2)CC1 [Clebopride maleate]
58 | > 46 | CC(S)C(=O)NCC(=O)O (configuration not stated) [TIOPRONIN]
59 | > 46 | CN(C)c1cc(NC(=O)CNC(C)(C)C)c(O)c2c1C[C@H]1C[C@H]3[C@H](N(C)C)C(O)=C(C(N)=O)C(=O)[C@]3(O)C(O)=C1C2=O [Tigecycline]
60 | > 46 | CC1=C(C/C=C(\C)CCCC(C)CCCC(C)CCCC(C)C)C(=O)c2ccccc2C1=O (configuration not stated) [Phytonadione]
61 | > 46 | O[C@@H]([C@H](O)[C@H](O)CBr)[C@H](O)CBr [MITOBRONITOL]
62 | > 46 | CN1c2c(O)nc(N)nc2NCC1CNc1ccc(C(=O)NC(CCC(=O)[O-])C(=O)[O-])cc1 (configuration not stated) [5-METHYLTETRAHYDROFOLATE SODIUM SALT]
63 | > 46 | Cc1ccccc1C(=O)N1CC/C(=N/OS(=O)(=O)[O-])c2ccc(Cl)cc21 [ALILUSEM POTASSIUM]
64 | > 46 | CC(C)CN(C[C@@H](O)[C@H](Cc1ccccc1)NC(=O)O[C@@H]1CO[C@H]2OCC[C@H]21)[S+](=O)([O-])c1ccc(N)cc1 [DARUNAVIR ETHANOLATE]
65 | > 46 | Oc1cc(O)cc(O)c1 [PHLOROGLUCINOL]
66 | > 46 | O=C1c2ccccc2C(=O)C1c1ccc(Cl)cc1 [Clorindione]
67 | > 46 | C[C@]12C=CC(=O)C=C1[C@@H](F)C[C@@H]1[C@@H]2[C@@H](O)C[C@@]2(C)[C@H]1CC[C@]2(O)C(=O)CO [Fluprednisolone]

— the supplement of paper PMC3974653
